# From article PMC12040169 (PLOS Biology, 2025)
# Experiment: in vitro
# Conditions: human, hela cells, % viability
row,SMILES,"viability at 28.5 h, 10 µM [%]"
1,CC(C)c1ccc(NS(=O)(=O)c2cc3c(N4CCNCC4)nccc3s2)cc1 [CBK038104C],91.4
2,Cn1nc(C2CC2)cc1NS(C)(=O)=O [CBK038148],93.9
3,CS(=O)(=O)Nc1nnc(C(F)(F)F)s1 [CBK038168],97.6
4,COc1ccc([C@@]23CC[C@@H](NC(=O)CNc4ccc(Cl)c(Cl)c4)C[C@@H]2N(C)CC3)cc1OC [CBK038220],94.4
5,COc1ccc([C@@]23CC[C@@H](NC(=O)Nc4ccc(Cl)c(C(F)(F)F)c4)C[C@@H]2N(C)CC3)cc1OC [CBK038224C],98.4
6,COC12CCCC(C(=O)O)(CCC1)C2 [CBK038238],93.8
7,CN(C)CCNc1nccc2sc(S(=O)(=O)NCCC3=CCCCC3)cc12 [CBK038244C],108
8,COc1cc(CNS(=O)(=O)c2cc3c(NCCN(C)C)nccc3s2)cc(OC)c1OC [CBK038246C],91.8
9,CC(=O)Oc1cc(C)cc(C#N)c1 [CBK038296],87.6
10,CC1(C)OCC2(CCN(C(C)(C)C)CC2)O1 [CBK038298],93.2
11,[O-][S+](c1ccc(Cl)c(Cl)c1)c1cc2c(N3CCCNCC3)nccc2s1 (stereo not drawn) [CBK038304C],71.2
12,C=CCN(c1ccccc1)S(=O)(=O)c1ccc(Br)cc1CC [CBK038344],95.8
13,COc1ccc(C(F)(F)F)cc1N [CBK038366],89.6
14,OC1CCN(c2nccc(C(F)(F)F)n2)CC1 [CBK038372],92.1
15,CC(C)(C)c1ccc(S(=O)(=O)N2CCC3(CC2)OCCO3)cc1 [CBK038429],111
16,CC(C)(C)CC(C)(C)NC(=O)NCCc1cccs1 [CBK038697],91.8
17,CC(=O)Nc1cccc(C(=O)O)c1Cl [CBK038814],94.1
18,COc1ccc([C@@]23CC[C@@H](NC(=O)Nc4cccc5nsnc45)C[C@@H]2N(C)CC3)cc1OC [CBK038874T],86.8
19,CC(C)c1nsc(NS(=O)(=O)c2cccc(C(F)(F)F)c2)n1 [CBK038881],98.3
20,O=C(O)c1cccc(NS(=O)(=O)Cc2ccccc2)c1 [CBK038894],96.4
21,O=C(O)c1cccc(NS(=O)(=O)Cc2ccccc2[N+](=O)[O-])c1 [CBK038906],97.8
22,COc1ccc(/C=C(\C)C(=O)NCc2ccc(OC3CCNCC3)cc2)cc1OC [CBK038914T],90.9

row,SMILES,"viability at 28.5 h, 10 µM [%]"
1,Cc1oc(-c2ccccc2)cc1C(=O)NCc1ccc(OC2CCNCC2)cc1 [CBK038915T],108
2,O=C(/C=C/c1cccnc1)Nc1cncc(OC2CCNCC2)n1 [CBK038919T],96.9
3,CC1(C)CC(=O)C=C(C(=O)Nc2cncc(OC3CCNCC3)n2)O1 [CBK038922T],103
4,CC1(C)CC(=O)C=C(C(=O)Nc2ccccc2N2CCCNCC2)O1 [CBK038935T],112
5,Cc1oc(-c2ccccc2)cc1C(=O)Nc1cc2ccccc2c(N2CCNCC2)n1 [CBK038938T],104
6,O=C(NCc1ccc(OC2CCNCC2)cc1)c1coc2c1C(=O)CCC2 [CBK038944T],101
7,O=C(/C=C/c1cccnc1)NCc1ccc(OC2CCNCC2)cc1 [CBK038945T],88.7
8,CC1(C)CC(=O)C=C(C(=O)NCc2ccc(OC3CCNCC3)cc2)O1 [CBK038948T],96.1
9,COc1cccc(CS(=O)(=O)c2c(Br)sc3ccnc(N4CCNCC4)c23)c1 [CBK038956C],95.1
10,CN1CCN(C(=O)c2cccc(NS(=O)(=O)c3cc(Cl)sc3Cl)c2)CC1 [CBK038966],96.2
11,Cc1noc(C)c1S(=O)(=O)Nc1cccc(C(=O)N2CCN(C)CC2)c1 [CBK038972],101
12,CCCc1ccc(S(=O)(=O)Nc2cccc(C(=O)Nc3ccc(F)cc3)c2)cc1 [CBK038978],97.4
13,CCN(CC)C(=O)c1cccc(NS(=O)(=O)c2cccc3cccnc23)c1 [CBK038999],66.5
14,COC(=O)c1ccsc1NS(=O)(=O)c1ccc(Br)cc1 [CBK039058],94.1
15,COC(=O)c1ccsc1NS(=O)(=O)c1ccc(NC(C)=O)cc1 [CBK039063],87.7
16,COC(=O)c1ccsc1NS(=O)(=O)Cc1ccccc1 [CBK039067],108
17,Cc1ccc(C(=O)N2CCCN(C(=O)CN3CCCC3)C2)cc1 [CBK039081],87.2
18,Cc1ccc(C(=O)N2CCN(CC(=O)N3CCCC3)CC2)cc1 [CBK039096],110
19,NC1=NC(=O)C(CC(=O)Nc2ccccc2Cl)S1 (stereo not drawn) [CBK039145],99.1
20,OCCOc1cccnc1OCCN1CCCC1 [CBK039174],85.3
21,CN1CCCC1CCOc1ncccc1OCCO (stereo not drawn) [CBK039176],118
22,COc1cc([C@@]23CC[C@@H](NC(=O)Nc4cccc(Cl)c4)C[C@@H]2N(C)CC3)cc(OC)c1OC [CBK039212],93.7

row,SMILES,"viability at 28.5 h, 10 µM [%]"
1,COc1ccc2[nH]c3c(c2c1)CCNC31CCCN(CCc2ccc(F)cc2)C1 (stereo not drawn) [CBK039246],90.9
2,Cc1cccc(CCN2CCC3(CC2)NCCc2c3[nH]c3ccc(Br)cc23)c1 [CBK039280],83.3
3,Cc1ccc2[nH]cc(CCN3CCC4(CC3)NCCc3c4[nH]c4ccc(OCc5ccccc5)cc34)c2c1 [CBK039342],91.8
4,COc1ccc2[nH]c3c(c2c1)CCNC31CCN(Cc2cc(F)cc(F)c2)C1 (stereo not drawn) [CBK039368],81.9
5,O=C1Cc2c(ccc3ccccc23)C2(CCN(CC3CCCCO3)CC2)N1 (stereo not drawn) [CBK039395],98.8
6,Cc1ccc(C(=O)CN2CCC3(CC2)NCCc2c3[nH]c3ccc(F)cc23)cc1 [CBK039503],107
7,Cc1cccc2c3c([nH]c12)C1(CCN(CC2CC2)C1)NCC3 (stereo not drawn) [CBK039520],95.8
8,Cc1ccc2[nH]c3c(c2c1)CCNC31CCN(CC2CCCCO2)CC1 (stereo not drawn) [CBK039545],103
9,Cc1ccc(C(=O)CN2CCCC3(C2)NCCc2c3[nH]c3c(C)cccc23)cc1 (stereo not drawn) [CBK039546],96
10,Cc1cccc2c3c([nH]c12)C1(CCCN(CCc2ccc([N+](=O)[O-])cc2)C1)NCC3 (stereo not drawn) [CBK039558],92.4
11,O=CN1CCc2c([nH]c3ccccc23)C12CCCN(Cc1ccc(C(F)(F)F)cc1)C2 (stereo not drawn) [CBK039587],92.6
12,COc1cccc(CN2CCC3(C2)c2[nH]c4c(C)cccc4c2CCN3C(C)=O)c1 (stereo not drawn) [CBK039662],84.9
13,CC(=O)N1CCc2c([nH]c3ccccc23)C12CCCN(CCC#N)C2 (stereo not drawn) [CBK039665],91.6
14,CC(=O)N1CCc2c([nH]c3cc(F)ccc23)C12CCN(CCC#N)CC2 [CBK039692],95.7
15,CC(=O)N1CCc2c([nH]c3c(C)cccc23)C12CCCN(CCCC#N)C2 (stereo not drawn) [CBK039705],104
16,CC(=O)N1CCc2c([nH]c3ccc(Br)cc23)C12CCN(CCCC#N)CC2 [CBK039724],83.2
17,Cc1cccc2c3c([nH]c12)C1(CCN(CCCC#N)CC1)NCC3 [CBK039818],90.8
18,Cc1cccc2c1CC(=O)NC21CCN(Cc2ccccc2)CC1 [CBK039819],87
19,COc1ccc2c(c1)CC(=O)NC21CCN(CCCCC(C)C)CC1 [CBK039839],95.3
20,Fc1ccc2c3c([nH]c2c1)C1(CCN(CCCOCc2ccccc2)CC1)NCC3 [CBK039858],92.7
21,COc1cc2c(cc1OC)C1(CCN(CCCC(F)(F)F)CC1)NC(=O)C2 [CBK039859],97.9
22,c1ccc(COc2ccc3[nH]c4c(c3c2)CCNC42CCN(Cc3ccccc3-c3ccccc3)C2)cc1 (stereo not drawn) [CBK039909],73.9

row,SMILES,"viability at 28.5 h, 10 µM [%]"
1,Cc1cccc2c1CC(=O)NC21CCN(CC(=O)c2ccc(F)cc2)CC1 [CBK039946],96
2,Cn1c2c(c3ccccc31)CCOC21CCN(Cc2ccc(OC(F)F)cc2)CC1 [CBK039975],95.8
3,O=C1Cc2cc3ccccc3cc2C2(CCN(CCC(F)=C(F)F)CC2)N1 [CBK040033],94.6
4,COc1cccc2c3c([nH]c12)C1(CCN(CCc2scnc2C)CC1)NCC3 [CBK040058],89
5,CC(c1nc2ccccc2[nH]1)N1CCC2(CC1)NCCc1c2[nH]c2ccccc12 (stereo not drawn) [CBK040061],90.3
6,FC(F)(F)c1ccc(CN2CCCC3(C2)NCCc2c3[nH]c3ccccc23)cc1 (stereo not drawn) [CBK040095],94.2
7,COc1ccc2[nH]c3c(c2c1)CCNC31CCN(CCC2CCCCC2)C1 (stereo not drawn) [CBK040111T],90.7
8,COc1ccc2[nH]c3c(c2c1)CCOC31CCN(CCC(F)=C(F)F)CC1 [CBK040118],103
9,c1csc(CCN2CCC3(CC2)OCCc2c3[nH]c3ccccc23)c1 [CBK040156],87.1
10,Cc1ccc2c(c1)C1(CCN(C/C=C\c3ccccc3)CC1)NC(=O)C2 [CBK040216],94.1
11,COCCOCCCN1CCC2(CC1)NC(=O)Cc1ccc(C)cc12 [CBK040222],109
12,CC(C)(C)C(=O)CN1CCC2(CC1)OCCc1c2[nH]c2ccc(F)cc12 [CBK040237],95.8
13,COC(=O)c1cccc(CN2CCC3(CC2)OCCc2c3[nH]c3ccc(F)cc23)c1 [CBK040326],100
14,O=CN1CCc2c([nH]c3ccc(F)cc23)C12CCN(Cc1cccc(Oc3ccc(F)cc3)c1)CC2 [CBK040388],96.4
15,Cc1ccc2[nH]c3c(c2c1)CCN(C=O)C31CCN(Cc2ccc(OC(F)F)cc2)CC1 [CBK040438],101
16,CN(C)C(C)(C)COc1ncccc1OCCO [CBK042184],112
17,CN1CCC[C@H]1COc1ncccc1OCCO [CBK042185],92.6
18,CN1CCN(c2ccc([N+](=O)[O-])c(NCc3ccccc3)c2)CC1 [CBK042199],93.7
19,O=[N+]([O-])c1ccc(N2CCN(CCO)CC2)cc1NCc1ccc(Cl)cc1 [CBK042201],99.6
20,O=C(CNS(=O)(=O)c1ccc(F)cc1)N1CCOCC1 [CBK042214],97.7
21,O=C(CNS(=O)(=O)c1cc(F)c(Br)cc1F)N1CCOCC1 [CBK042216],107
